According to patent US20220184222A1, “BICYCLE TOXIN CONJUGATES AND USES THEREOF” (BicycleTx Limited, priority 2019, published 2022):
Starred links: 1 amine or outer side, 2 acyl side, 3 side chain; linkers in the order of their positions; H or OH if unused. Non-standard residues stand in square brackets, D forms with d. Residues, ends and D or L forms follow the SMILES beside them. *: point of attachment. Dolaproine = CO[C@@H]([C@@H]1CCCN1)[C@@H](C)C(=O)O; Dil = CC[C@H](C)[C@H](NC)[C@@H](CC(=O)O)OC; PABC = O=C(OCc1ccc(N[*:1])cc1)[*:2]; X1 = O=C(CCCC(=O)*)ON1C(=O)CCC1=O; X2 = C[C@@H](N*)[C@@H](O)c1ccccc1; Cit = NC(=O)NCCC[C@H](N)C(=O)O; NMeV = CN[C@H](C(=O)O)C(C)C

Tests used:
CTG-1212 = assay: Champions TumorGraft NSCLC PDX efficacy, model CTG-1212; assay type: in vivo, Mus musculus
Protocol: (§1) Mice were implanted subcutaneously into the left flank with tumor fragments from one of the various models. After tumors grew to an average of 150-300 mm^3, mice were treated by IV administration Q7Dx4 (n=2) with vehicle or 3 mg/kg of BT5528. Effects on tumor growth were evaluated by measuring percent tumor growth inhibition (% TGI), and the number of complete responders (CR), partial responders (PR), and tumor-free survivors (TFS). Tolerability was assessed by body weight loss, lethality, and clinical signs of adverse treatment-related side effects. Tumor volumes and body weights were measured twice a week.
(§2) Dosing solutions of BT5528 […] were pre-formulated. These dosing solutions were stored at −80° C. in the dark. On each day of dosing, a frozen aliquot of each test agent was thawed, stored at 2-8° C. and used for dosing.
(§3) The animals used in this study are described below: • Species: Mus musculus • Strain: Athymic Nude-Foxn1^nu (immune-compromised) • Source: Envigo (Indianapolis, Ind., USA) • Number of animals per group: 2 • Age and sex: At least 6-8 weeks of age at start of dosing, female • Weight: At least 18 grams at start of dosing • Acclimation period: 3 days
(§4) Stock mice were implanted with tumor cells from Champions TumorGraft® models CTG-0160, CTG-0170, CTG-0178, CTG-0192, CTG-0363, CTG-0808, CTG-0838, CTG-0848, CTG-1212, CTG-1502, CTG-1535, CTG-2011, CTG-2393, CTG-2539 or CTG-2540. After the tumors reached 1000-1500 mm^3, they were harvested and the tumor fragments (approximately 5×5×5 mm^3) were implanted SC in the left flank of the female study mice. Each animal was implanted with a specific passage lot and documented. Tumor growth was monitored twice a week using digital calipers and the tumor volume (TV) was calculated using the formula (0.52×[length×width^2]). When the TV reached an average volume of 150-300 mm^3, animals were matched by tumor size and assigned into Vehicle Control and treatment groups (n=2/group) and dosing was initiated on Day 0. After the initiation of dosing on Day 0, animals were weighed twice per week using a digital scale and TV was measured twice per week and also on the final day of study. The study was completed when the mean tumor volume of Vehicle Control reached 1500 mm^3 or up to Day 60, whichever occurred first.
(§5) Beginning on Day 0, animals were observed daily and weighed twice weekly using a digital scale; data including individual and mean gram weights, mean percent weight change versus Day 0 (% vD0) were recorded for each group and % vD0 plotted at study completion. […] Treatment resulting in a mean % vD0>20% and/or >10% mortality was considered above the maximum tolerated dose. Maximum mean % vD0 (weight nadir) for each treatment group was reported at study completion.
(§6) Inhibition of tumor growth was determined by calculating the percent TGI (100%×[1−(final MTV−initial MTV of a treated group)/(final MTV−initial MTV of the control group)]). Treatment started on Day 0.
(§7) Additional endpoints used to evaluate efficacy were: the number of complete responders (CR), partial responders (PR), and tumor-free survivors (TFS). PRs were considered exclusive of CRs, as were TFS.
(§8) Statistical analyses of anti-tumor efficacy were performed using one-way ANOVA followed by Dunnett's multiple comparisons test (GraphPad Prism version 8.2.0). Significant p-values=<0.05.
(§9) Animals were dosed according to the schedule on Table 7-1. The study was terminated on Day 27.

CTG-2393 = assay: Champions TumorGraft NSCLC PDX efficacy, model CTG-2393; assay type: in vivo, Mus musculus
Protocol: as §1, §2, §3, §4, §5, §6, §7, §8
Animals were dosed according to the schedule on Table 7-1. The study was terminated on Day 28.

CTG-1535 = assay: Champions TumorGraft NSCLC PDX efficacy, model CTG-1535; assay type: in vivo, Mus musculus
Protocol: as §1, with “After tumors grew to an average of 150-300 mm^3, mice were treated by IV administration Q7Dx4 (n=2) with vehicle or 3 mg/kg of BT5528.” left out
as §2, §3, §4, §5, §6, §7, §8
Animals were dosed according to the schedule on Table 7-1. The study was terminated on Day 35.

Panc163 = assay: PDAC PDX Panc163 xenograft efficacy (Example 5); assay type: in vivo, NSG mice; conditions: 3 mg/kg intravenously weekly, 4-week treatment period
Protocol: BT5528 and Vehicle were prepared as described in the examples above, and tested in treatment of Pancreatic Ductal Adenocarcinoma (PDAC) in PDX models. PDX models effectively capture patient responses to oncology therapy in a heterogeneous cohort of patients with solid tumors with 80-100% correlation between the PDX and patient response (Izumchenko et al. 2017)
Pancreatic ductal adenocarcinoma patient derived xenograft tumors (PDAC PDX; Panc033 and Panc163) were implanted subcutaneously from source tumors into the flank of NSG mice. Tumor bearing animals were randomized to receive intravenously a weekly dosing of vehicle or 3 mg/kg BT5528. Tumor sizes were monitored by caliper measurements.

CTG-0848 = assay: Champions TumorGraft NSCLC PDX efficacy, model CTG-0848; assay type: in vivo, Mus musculus
Protocol: as §1, §2, §3, §4, §5, §6, §7, §8, §9

CTG-2539 = assay: Champions TumorGraft NSCLC PDX efficacy, model CTG-2539; assay type: in vivo, Mus musculus
Protocol: as §1, with “After tumors grew to an average of 150-300 mm^3, mice were treated by IV administration Q7Dx4 (n=2) with vehicle or 3 mg/kg of BT5528.” left out
[…] These dosing solutions were stored at −80° C. in the dark. On each day of dosing, a frozen aliquot of each test agent was thawed, stored at 2-8° C. and used for dosing.
as §3, §4, §5, §6, §7, §8
Animals were dosed according to the schedule on Table 7-1. The Vehicle Control reached endpoint on Day 21 and the BT5528 group reached endpoint on Day 18. The study was terminated on Day 25.

[1] = CTG-1212, 3 mg/kg IV Q7Dx4, Day 0-27
[2] = CTG-2393, 3 mg/kg IV Q7Dx4, Day 0-28
[3] = CTG-1535, 3 mg/kg IV Q7Dx5, Day 0-35
[4] = CTG-0848, 3 mg/kg IV Q7Dx4, Day 0-27
[5] = CTG-2539, 3 mg/kg IV Q7Dx3, Day 0-25

CC[C@H](C)[C@@H]([C@@H](CC(=O)N1CCC[C@H]1[C@H](OC)[C@@H](C)C(=O)N[C@H](C)[C@@H](O)c1ccccc1)OC)N(C)C(=O)[C@@H](NC(=O)[C@H](C(C)C)N(C)C(=O)OCc1ccc(NC(=O)[C@H](CCCNC(N)=O)NC(=O)[C@@H](NC(=O)CCCC(=O)ON2C(=O)CCC2=O)C(C)C)cc1)C(C)C [BT5528] (X1-V[Cit][PABC][NMeV]V[Dil][Dolaproine]-X2)
mean body weight loss (CTG-1212; 3 mg/kg IV Q7Dx4): minor mean body weight losses
MTV (mean tumor volume) (CTG-1212; 3 mg/kg IV Q7Dx4, Day 27): 128±53 mm^3
TGI (CTG-1212; 3 mg/kg IV Q7Dx4, Day 27): 112%
# CR (complete responders) (CTG-1212; [1]): 0/0/0
# PR (partial responders) (CTG-1212; [1]): 0/0/0
# TFS (tumor-free survivors) (CTG-1212; [1]): 0/0/0
% TGI (CTG-1212; CTG-1212, 3 mg/kg IV Q7Dx4, Day 27): 112%
Day 27 Tumor Volume Mean TV ± SEM (CTG-1212; CTG-1212, BT5528 3 mg/kg IV Q7Dx4, Day 27, n=2): 128 ± 53 mm^3
MTV (mean tumor volume) (CTG-2393; 3 mg/kg IV Q7Dx4, Day 28): 158±25 mm^3
TGI (CTG-2393; 3 mg/kg IV Q7Dx4, Day 28): 107%
# CR (complete responders) (CTG-2393; [2]): 0/0/0
# PR (partial responders) (CTG-2393; [2]): 0/0/0
# TFS (tumor-free survivors) (CTG-2393; [2]): 0/0/0
% TGI (CTG-2393; CTG-2393, 3 mg/kg IV Q7Dx4, Day 28): 107%
Day 28 Tumor Volume Mean TV ± SEM (CTG-2393; CTG-2393, BT5528 3 mg/kg IV Q7Dx4, Day 28, n=2): 158 ± 25 mm^3
MTV (mean tumor volume) (CTG-1535; 3 mg/kg IV Q7Dx5, Day 35): 307±91 mm^3
TGI (CTG-1535; 3 mg/kg IV Q7Dx5, Day 35): 85%
# CR (complete responders) (CTG-1535; [3]): 0/0/0
# PR (partial responders) (CTG-1535; [3]): 0/0/0
# TFS (tumor-free survivors) (CTG-1535; [3]): 0/0/0
% TGI (CTG-1535; CTG-1535, 3 mg/kg IV Q7Dx5, Day 35): 85%
Day 35 Tumor Volume Mean TV ± SEM (CTG-1535; CTG-1535, BT5528 3 mg/kg IV Q7Dx5, Day 35, n=2): 307 ± 91 mm^3
anti-tumor activity (tumor size by caliper) (Panc163): significant anti-tumor activity from reduced tumor growth rate to decreasing tumor volumes
MTV (mean tumor volume) (CTG-0848; 3 mg/kg Q7Dx4, Day 27): 512±113 mm^3
TGI (CTG-0848; 3 mg/kg Q7Dx4, Day 27): 56%
# CR (complete responders) (CTG-0848; [4]): 0/0/0
# PR (partial responders) (CTG-0848; [4]): 0/0/0
# TFS (tumor-free survivors) (CTG-0848; [4]): 0/0/0
% TGI (CTG-0848; CTG-0848, 3 mg/kg IV Q7Dx4, Day 27): 56%
Day 27 Tumor Volume Mean TV ± SEM (CTG-0848; CTG-0848, BT5528 3 mg/kg IV Q7Dx4, Day 27, n=2): 512 ± 113 mm^3
MTV (mean tumor volume) (CTG-2539; 3 mg/kg IV Q7Dx3, Day 18): 2029±594 mm^3
TGI (CTG-2539; 3 mg/kg IV Q7Dx3, Day 18): −51%
# CR (complete responders) (CTG-2539; [5]): 0/0/0
# PR (partial responders) (CTG-2539; [5]): 0/0/0
# TFS (tumor-free survivors) (CTG-2539; [5]): 0/0/0
% TGI (CTG-2539; CTG-2539, 3 mg/kg IV Q7Dx3, Day 18): −51%
Day 18 Tumor Volume Mean TV ± SEM (CTG-2539; CTG-2539, BT5528 3 mg/kg IV Q7Dx3, Day 18, n=2): 2029 ± 594 mm^3
